Experimental data reported in patent US20120065173A1 (priority 2006, published 2012).

Molecular target: T1, recombinant human GR (Homo sapiens, UniProt P04150)
T1 construct: purchased Panvera/Invitrogen P2812 (kit P2893)
T1 sequence (P04150 1-777): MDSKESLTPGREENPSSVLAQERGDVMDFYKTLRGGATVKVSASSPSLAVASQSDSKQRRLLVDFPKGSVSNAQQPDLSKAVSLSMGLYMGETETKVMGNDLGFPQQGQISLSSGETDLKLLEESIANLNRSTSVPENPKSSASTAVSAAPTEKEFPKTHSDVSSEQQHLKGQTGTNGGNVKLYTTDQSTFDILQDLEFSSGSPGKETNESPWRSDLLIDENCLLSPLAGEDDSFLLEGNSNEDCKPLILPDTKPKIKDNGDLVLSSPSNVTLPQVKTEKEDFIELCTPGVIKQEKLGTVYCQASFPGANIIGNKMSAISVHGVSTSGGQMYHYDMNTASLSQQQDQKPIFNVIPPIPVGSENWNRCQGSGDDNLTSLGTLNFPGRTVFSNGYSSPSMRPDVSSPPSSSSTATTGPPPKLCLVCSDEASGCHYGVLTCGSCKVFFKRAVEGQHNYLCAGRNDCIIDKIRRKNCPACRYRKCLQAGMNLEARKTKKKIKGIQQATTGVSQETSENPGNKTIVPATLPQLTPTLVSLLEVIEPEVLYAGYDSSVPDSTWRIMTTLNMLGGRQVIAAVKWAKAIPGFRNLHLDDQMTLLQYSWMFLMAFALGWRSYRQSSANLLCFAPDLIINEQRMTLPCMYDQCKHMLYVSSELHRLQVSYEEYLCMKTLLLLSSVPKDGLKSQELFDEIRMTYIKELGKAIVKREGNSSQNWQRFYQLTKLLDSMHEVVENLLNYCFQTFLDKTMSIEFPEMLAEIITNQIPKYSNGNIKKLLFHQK
Assay: Human Glucocorticoid Receptor (GR) Assay, fluorescence polarization (GRhuFL_FP_v2)
Assay type: binding
Conditions: GS Red tracer, 2 hours at room temperature, 100% control 10 μM Dexamethasone
Protocol: Human Glucocorticoid Receptor (GR) Assay
The assay is based on a commercial kit from Panvera/Invitrogen (Part number P2893). The assay technology is fluorescence polarization. […] The GR and Stabilizing Peptide reagents are stored at −70° C. while the GS Red is stored at −20° C. Also included in the kit are 1M DTT (Panvera, Part number P2325, stored at −20° C.) and GR Screening buffer 10× (Panvera, Part number P2814, stored at −70° C. initially but once thawed stored at room temperature). Avoid repeated freeze/thaws for all reagents. The GR Screening buffer 10× comprises 100 mM potassium phosphate, 200 mM sodium molybdate, 1 mM EDTA and 20% DMSO.
0% control was 100% DMSO and 100% control was 10 μM Dexamethasone. Background solution (8 μL; assay buffer 10×, Stabilizing Peptide, DTT and ice cold MQ water) was added to the background wells. GS Red solution (7 μL; assay buffer 10×, Stabilizing Peptide, DTT, GS Red and ice cold water) was added to all wells except background wells. GR solution (7 μL; assay buffer 10×, Stabilizing Peptide, DTT, GR and ice cold water) was added to all wells. The plate was sealed and incubated in a dark at room temperature for 2 hours.

Structure (SMILES)	IC50
C[C@H](NS(=O)(=O)C1CC1)[C@H](Oc1cc2cnn(-c3ccc(F)cc3)c2cc1Cl)c1ccc(F)cc1 (racemic) [Example 35, N-[(1RS,2SR)-1-[6-chloro-1-(4-fluorophenyl)indazol-5-yl]oxy-1-(4-fluorophenyl)propan-2-yl]cyclopropanesulfonamide]	6.2 nM
CC(NS(=O)(=O)C1CC1)C(Oc1cc2cnn(-c3ccc(F)cc3)c2cc1Cl)c1ccc(F)cc1 (racemic) [Example 36, N-[(1RS,2RS)-1-[6-chloro-1-(4-fluorophenyl)indazol-5-yl]oxy-1-(4-fluorophenyl)propan-2-yl]cyclopropanesulfonamide]	4.3 nM
C[C@H](NS(=O)(=O)C1CC1)[C@H](Oc1cccc2c1cnn2-c1ccc(F)cc1)c1ccccc1 [Example 3, N-[(1R,2S)-1-[1-(4-fluorophenyl)indazol-4-yl]oxy-1-phenyl-propan-2-yl]cyclopropanesulfonamide]	90 nM
C[C@H](NS(=O)(=O)C1CC1)[C@H](Oc1ccc2c(cnn2-c2ccc(F)nc2)c1)c1ccccc1 [Example 4, N-[(1R,2S)-1-[1-(6-fluoropyridin-3-yl)indazol-5-yl]oxy-1-phenyl-propan-2-yl]cyclopropanesulfonamide]	4.9 nM
C[C@H](NS(=O)(=O)CCN1C(=O)c2ccccc2C1=O)[C@H](Oc1ccc2c(cnn2-c2ccc(F)cc2)c1)c1ccccc1 [Example 10, 2-(1,3-Dioxoisoindol-2-yl)-N-[(1R,2S)-1-[1-(4-fluorophenyl)indazol-5-yl]oxy-1-phenyl-propan-2-yl]ethanesulfonamide]	6.5 nM
COc1ccc(OCCCS(=O)(=O)N[C@@H](C)[C@H](Oc2ccc3c(cnn3-c3ccc(F)cc3)c2)c2ccccc2)cc1 [Example 11, N-[(1R,2S)-1-[1-(4-fluorophenyl)indazol-5-yl]oxy-1-phenyl-propan-2-yl]-3-(4-methoxyphenoxy)propane-1-sulfonamide]	6.9 nM
C[C@H](NS(=O)(=O)CC1CCCCC1)[C@H](Oc1ccc2c(cnn2-c2ccc(F)cc2)c1)c1ccccc1 [Example 23, 1-Cyclohexyl-N-[(1R,2S)-1-[1-(4-fluorophenyl)indazol-5-yl]oxy-1-phenyl-propan-2-yl]methanesulfonamide]	9.5 nM
Cc1ccc(-n2ncc3cc(O[C@H](c4ccccc4)C(C)(C)NS(=O)(=O)C4CC4)ccc32)cc1 [Example 26, (R)—N-(2-methyl-1-phenyl-1-(1-p-tolyl-1H-indazol-5-yloxy)propan-2-yl)cyclopropanesulfonamide]	77 nM
CC(C)n1ncc2cc(O[C@H](c3ccccc3)[C@H](C)NS(C)(=O)=O)ccc21 [Example 30, N-[(1R,2S)-1-phenyl-1-(1-propan-2-ylindazol-5-yl)oxy-propan-2-yl]methanesulfonamide]	330 nM
C[C@H](NS(=O)(=O)C1CC1)[C@H](Oc1ccc2c(cnn2-c2ccc(F)cc2)c1)c1ccc([S+](C)[O-])cc1 (stereo partly drawn) [Example 31, N-[(1R,2S)-1-[1-(4-fluorophenyl)indazol-5-yl]oxy-1-(4-methylsulfinylphenyl)propan-2-yl]cyclopropanesulfonamide]	6.4 nM
C[C@H](NS(=O)(=O)C1CC1)[C@H](Oc1ccc2c(cnn2C2CCCC2)c1)c1ccccc1 [Example 32, N-[(1R,2S)-1-(1-cyclopentylindazol-5-yl)oxy-1-phenyl-propan-2-yl]cyclopropanesulfonamide]	7.6 nM
CC(C)n1ncc2cc(O[C@H](c3ccccc3)[C@H](C)NS(=O)(=O)C3CC3)ccc21 [Example 33, N-[(1R,2S)-1-phenyl-1-(1-propan-2-ylindazol-5-yl)oxy-propan-2-yl]cyclopropanesulfonamide]	170 nM
O=S(=O)(NC[C@H](Sc1ccc2c(cnn2-c2ccc(F)cc2)c1)c1ccccc1)C1CC1 [Example 37, (R)—N-[2-[1-(4-fluorophenyl)indazol-5-yl]sulfanyl-2-phenyl-ethyl]cyclopropanesulfonamide]	17 nM
C[C@H](NS(C)(=O)=O)[C@H](Sc1ccc2c(cnn2-c2ccc(F)cc2)c1)c1ccccc1 [Example 38, N-((1R,2S)-1-(1-(4-fluorophenyl)-1H-indazol-5-ylthio)-1-phenylpropan-2-yl)methanesulfonamide]	4.8 nM
C[C@H](NS(C)(=O)=O)[C@@H](c1ccccc1)S(=O)(=O)c1ccc2c(cnn2-c2ccc(F)cc2)c1 [Example 39]	280 nM
O=S(=O)(NC[C@H](Oc1ccc2c(cnn2-c2ccc(F)cc2)c1)c1ccccc1)C1CC1 [Example 40, N-[(2R)-2-[1-(4-fluorophenyl)indazol-5-yl]oxy-2-phenyl-ethyl]cyclopropanesulfonamide]	13 nM
O=S(=O)(NC[C@@H](Oc1ccc2c(cnn2-c2ccc(F)cc2)c1)c1ccccc1)C1CC1 [Example 41, N-[(2S)-2-[1-(4-fluorophenyl)indazol-5-yl]oxy-2-phenyl-ethyl]cyclopropanesulfonamide]	250 nM

Results, then the compound that gave them:

IC50	Structure (SMILES)
5.9 nM	C[C@H](NS(=O)(=O)Cc1ccccc1)[C@H](Oc1ccc2c(cnn2-c2ccc(F)cc2)c1)c1ccccc1 [Example 6, N-[(1R,2S)-1-[1-(4-fluorophenyl)indazol-5-yl]oxy-1-phenyl-propan-2-yl]-1-phenyl-methanesulfonamide]
4.6 nM	C[C@H](NS(=O)(=O)N(C)C)[C@H](Oc1ccc2c(cnn2-c2ccc(F)cc2)c1)c1ccccc1 [Example 8]
2.8 nM	CCS(=O)(=O)N[C@@H](C)[C@H](Oc1ccc2c(cnn2-c2ccc(F)cc2)c1)c1ccccc1 [Example 12, N-[(1R,2S)-1-[1-(4-fluorophenyl)indazol-5-yl]oxy-1-phenyl-propan-2-yl]ethanesulfonamide]
5 nM	CCCC(C)S(=O)(=O)N[C@@H](C)[C@H](Oc1ccc2c(cnn2-c2ccc(F)cc2)c1)c1ccccc1 (stereo partly drawn) [Example 13, N-[(1R,2S)-1-[1-(4-fluorophenyl)indazol-5-yl]oxy-1-phenyl-propan-2-yl]pentane-2-sulfonamide]
5.4 nM	CCCCS(=O)(=O)N[C@@H](C)[C@H](Oc1ccc2c(cnn2-c2ccc(F)cc2)c1)c1ccccc1 [Example 15]
4.3 nM	C[C@H](NS(=O)(=O)CCC(F)(F)F)[C@H](Oc1ccc2c(cnn2-c2ccc(F)cc2)c1)c1ccccc1 [Example 18, 3,3,3-trifluoro-N-[(1R,2S)-1-[1-(4-fluorophenyl)indazol-5-yl]oxy-1-phenyl-propan-2-yl]propane-1-sulfonamide]
5.1 nM	COC(=O)CCS(=O)(=O)N[C@@H](C)[C@H](Oc1ccc2c(cnn2-c2ccc(F)cc2)c1)c1ccccc1 [Example 19, Methyl 3-[[(1R,2S)-1-[1-(4-fluorophenyl)indazol-5-yl]oxy-1-phenyl-propan-2-yl]sulfamoyl]propanoate]
8.7 nM	C[C@H](NS(=O)(=O)CC1CCCC1)[C@H](Oc1ccc2c(cnn2-c2ccc(F)cc2)c1)c1ccccc1 [Example 20, 1-Cyclopentyl-N-[(1R,2S)-1-[1-(4-fluorophenyl)indazol-5-yl]oxy-1-phenyl-propan-2-yl]methanesulfonamide]
9.9 nM	C[C@H](NS(=O)(=O)C1CCCC1)[C@H](Oc1ccc2c(cnn2-c2ccc(F)cc2)c1)c1ccccc1 [Example 21, N-[(1R,2S)-1-[1-(4-fluorophenyl)indazol-5-yl]oxy-1-phenyl-propan-2-yl]cyclopentanesulfonamide]
2.7 nM	C[C@H](NS(=O)(=O)CC(F)(F)F)[C@H](Oc1ccc2c(cnn2-c2ccc(F)cc2)c1)c1ccccc1 [Example 22, 2,2,2-trifluoro-N-[(1R,2S)-1-[1-(4-fluorophenyl)indazol-5-yl]oxy-1-phenyl-propan-2-yl]ethanesulfonamide]
7.6 nM	CCCCCCS(=O)(=O)N[C@@H](C)[C@H](Oc1ccc2c(cnn2-c2ccc(F)cc2)c1)c1ccccc1 [Example 24, N-[(1R,2S)-1-[1-(4-fluorophenyl)indazol-5-yl]oxy-1-phenyl-propan-2-yl]hexane-1-sulfonamide]
7 nM	C[C@H](NS(=O)(=O)c1cccnc1)[C@H](Oc1ccc2c(cnn2-c2ccc(F)cc2)c1)c1ccccc1 [Example 25, N-[(1R,2S)-1-[1-(4-fluorophenyl)indazol-5-yl]oxy-1-phenyl-propan-2-yl]pyridine-3-sulfonamide]
